Measured values as given in patent US20040028734A1, “Use of anti-muscarinic agents and calcium channel blockers in combination” (priority 2000, published 2004).
Where two headings read alike, the source gives them in different places.

What was measured:
[1] = Frey's syndrome, single dermal application; cited from earlier work
[2] = test system: Guinea pig tracheal strip preparations; experiment: tissue or blood; conditions: Cavia porcellus, 5 min
Description: Guinea pig tracheal strip preparations were pre-contracted with 5×10^−6 M carbachol for 10 minutes, to induce tone, before incubation with drug. […] Relaxation is expressed as % maximal relaxation induced by 5×10^−4 M papaverine after completion of concentration-response curves. […]

[3] = clinical level, compared with ipratropium; cited from earlier work
[4] = test system: Guinea pig tracheal strip preparations; experiment: tissue or blood; conditions: for % Relaxation: % maximal of carbachol-induced tone, DRC to verapamil
Description: Again, guinea pig tracheal strip preparations were pre-contracted with 5×10^−6 M carbachol for 10 minutes before incubation with the pre-treatment drug. The relaxation (% maximal of carbachol-induced tone) induced by the pre-treatment is shown in FIG. 2, for the following groups.

[5] = test system: T lymphocytes; conditions: cited from earlier work

C[N+]1(C)CCC(OC(=O)C(O)(c2ccccc2)C2CCCC2)C1 (centres unmarked) [glycopyrrolate]
duration of action [1]: two day
EC50 [2]: 9.23 nM
EC50 ([2]; read-out: -Log EC50 (converted)): 9.12 nM
duration of action in muscarinic antagonism [3]: longer duration of action in muscarinic antagonism than ipratropium
% Relaxation ([4]; Group B, pre-treatment 4 × 10^−9 M): 6.5 ± 0.8%
% Relaxation ([4]; Group C, pre-treatment 4 × 10^−10 M): −0.7 ± 1.4%

CN1[C@@H]2CC[C@H]1C[C@@H](OC(=O)C(CO)c1ccccc1)C2 (some centres unmarked) [atropine, Atropine]
effect on acetylcholine-mediated enhanced T lymphocyte proliferation [5]: abolishes this effect completely

COc1ccc(CCN(C)CCCC(C#N)(c2ccc(OC)c(OC)c2)C(C)C)cc1OC (centres unmarked) [verapamil]
EC50 ([4]; Cavia porcellus): 5 µM
